Data reported in ChEMBL document CHEMBL5537178, “Discovery of TP0628103: A Highly Potent and Selective MMP-7 Inhibitor with Reduced OATP-Mediated Clearance Designed by Shifting Isoelectric Points” (J Med Chem, 2024).
pIC50: −log10 of the molar value. Active and inactive are the calls of the source. The calls are words filed in the database; no cut-off is given here.

Key:
[1] = Volume of distribution at steady state in cynomolgus monkey at 1 mg/kg, iv; format: ADME, organism-based, Macaca fascicularis; details: in vivo, read-out: Vdss
CYP2B6 = target: T1, CYP2B6 (Homo sapiens, UniProt P20813); assay: Time dependent inhibition of CYP2B6 in human liver microsomes at 10 uM by LC-MS/MS analysis relative to control; format: ADME, Microsome; details: read-out: TDI
T1 sequence (P20813 whole entry): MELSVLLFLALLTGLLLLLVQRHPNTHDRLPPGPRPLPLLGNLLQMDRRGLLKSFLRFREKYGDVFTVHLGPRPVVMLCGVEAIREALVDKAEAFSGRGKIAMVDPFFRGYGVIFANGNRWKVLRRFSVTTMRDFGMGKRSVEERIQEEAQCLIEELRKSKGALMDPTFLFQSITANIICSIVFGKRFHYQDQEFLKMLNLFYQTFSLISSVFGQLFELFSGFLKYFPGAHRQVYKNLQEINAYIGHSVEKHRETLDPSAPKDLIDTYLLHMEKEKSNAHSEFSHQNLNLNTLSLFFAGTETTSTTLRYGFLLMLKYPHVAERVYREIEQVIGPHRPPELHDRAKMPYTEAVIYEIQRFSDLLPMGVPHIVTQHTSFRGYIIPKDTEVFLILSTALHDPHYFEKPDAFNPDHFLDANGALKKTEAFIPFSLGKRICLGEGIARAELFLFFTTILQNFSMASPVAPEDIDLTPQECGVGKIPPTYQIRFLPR

CYP2C9 [2] = target: T2, CYP2C9 (Homo sapiens, UniProt P11712); assay: Inhibition of CYP2C9 in human liver microsomes at 10 uM by LC-MS/MS analysis relative to control; format: ADME, Microsome
T2 sequence (P11712 whole entry): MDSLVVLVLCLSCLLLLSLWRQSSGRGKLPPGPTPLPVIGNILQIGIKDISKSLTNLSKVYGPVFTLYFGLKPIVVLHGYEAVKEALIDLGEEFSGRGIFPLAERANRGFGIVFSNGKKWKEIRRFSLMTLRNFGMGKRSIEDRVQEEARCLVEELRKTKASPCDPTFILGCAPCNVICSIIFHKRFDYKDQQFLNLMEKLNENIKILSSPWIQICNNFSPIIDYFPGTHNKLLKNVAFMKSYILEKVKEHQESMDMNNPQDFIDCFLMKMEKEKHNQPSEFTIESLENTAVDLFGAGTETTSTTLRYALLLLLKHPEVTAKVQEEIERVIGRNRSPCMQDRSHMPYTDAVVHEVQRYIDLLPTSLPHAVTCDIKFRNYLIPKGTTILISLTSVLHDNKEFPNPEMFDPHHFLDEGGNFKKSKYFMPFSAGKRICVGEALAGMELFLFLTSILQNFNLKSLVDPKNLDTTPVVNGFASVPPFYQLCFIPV

CYP3A [3] = target: T3, CYP3A (Homo sapiens, UniProt P08684+P20815+P24462+Q9HB55); assay: Inhibition of CYP3A in human liver microsomes using testosterone as substrate at 10 uM by LC-MS/MS analysis relative to control; format: ADME, Microsome; details: probe testosterone
CYP1A2 = target: T4, CYP1A2 (Homo sapiens, UniProt P05177); assay: Time dependent inhibition of CYP1A2 in human liver microsomes at 10 uM by LC-MS/MS analysis relative to control; format: ADME, Microsome; details: read-out: TDI
T4 sequence (P05177 whole entry): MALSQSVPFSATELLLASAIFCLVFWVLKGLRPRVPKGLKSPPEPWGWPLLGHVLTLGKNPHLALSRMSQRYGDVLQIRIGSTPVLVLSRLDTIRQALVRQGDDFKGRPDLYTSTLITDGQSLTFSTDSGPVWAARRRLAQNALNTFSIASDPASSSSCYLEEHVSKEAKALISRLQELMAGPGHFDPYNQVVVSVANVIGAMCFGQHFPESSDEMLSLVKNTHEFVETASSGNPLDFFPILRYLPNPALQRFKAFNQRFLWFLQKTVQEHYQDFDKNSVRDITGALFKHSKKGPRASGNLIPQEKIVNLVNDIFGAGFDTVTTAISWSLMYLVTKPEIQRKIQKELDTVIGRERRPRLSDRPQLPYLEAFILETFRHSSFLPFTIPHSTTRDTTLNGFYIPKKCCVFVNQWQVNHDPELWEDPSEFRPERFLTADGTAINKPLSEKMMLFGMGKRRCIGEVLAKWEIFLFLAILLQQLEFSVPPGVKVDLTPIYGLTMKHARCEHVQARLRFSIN

[4] = Plasma unbound drug concentration at steady state in UUO surgery-induced renal fibrosis C57BL/6J mouse model at 0.1 mg/kg/day, sc administered with mini osmotic pump measured after 3 days; format: ADME, organism-based; details: in vivo, 72 h, time 3 day
[5] = Chemical stability of the compound in pH 4 aqueous solution assessed as degradation by measuring residual rate incubated for 24 hrs at 65 degC by HPLC analysis; format: physicochemical; details: read-out: Activity
CYP3A [6] = target: T3, CYP3A; assay: Time dependent inhibition of CYP3A in human liver microsomes using midazolam as substrate at 10 uM by LC-MS/MS analysis relative to control; format: ADME, Microsome; details: probe midazolam, read-out: TDI
[7] = Inhibition of recombinant mouse MMP1 assessed as enzyme activity by measuring fluorescence using fluorogenic peptide substrate
CYP2C9 [8] = target: T2, CYP2C9; assay: Time dependent inhibition of CYP2C9 in human liver microsomes at 10 uM by LC-MS/MS analysis relative to control; format: ADME, Microsome; details: read-out: TDI
CYP2C8 [9] = target: T5, CYP2C8 (Homo sapiens, UniProt P10632); assay: Time dependent inhibition of CYP2C8 in human liver microsomes at 10 uM by LC-MS/MS analysis relative to control; format: ADME, Microsome; details: read-out: TDI
T5 sequence (P10632 whole entry): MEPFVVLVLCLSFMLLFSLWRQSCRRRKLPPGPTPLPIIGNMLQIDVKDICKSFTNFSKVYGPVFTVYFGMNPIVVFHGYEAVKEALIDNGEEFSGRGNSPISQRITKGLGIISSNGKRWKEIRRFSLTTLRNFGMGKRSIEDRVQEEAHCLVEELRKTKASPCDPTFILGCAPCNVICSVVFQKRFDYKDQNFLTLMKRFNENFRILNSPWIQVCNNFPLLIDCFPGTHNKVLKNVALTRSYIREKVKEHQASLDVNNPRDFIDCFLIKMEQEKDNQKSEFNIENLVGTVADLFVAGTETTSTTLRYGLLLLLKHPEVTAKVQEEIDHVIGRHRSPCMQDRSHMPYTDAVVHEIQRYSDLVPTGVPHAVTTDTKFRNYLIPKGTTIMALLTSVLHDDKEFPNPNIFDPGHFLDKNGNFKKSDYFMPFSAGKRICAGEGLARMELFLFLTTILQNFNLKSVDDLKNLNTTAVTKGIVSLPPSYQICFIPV

CYP2C8 [10] = target: T5, CYP2C8; assay: Inhibition of CYP2C8 in human liver microsomes at 10 uM by LC-MS/MS analysis relative to control; format: ADME, Microsome
[11] = Fraction unbound in human; format: ADME
[12] = Plasma unbound drug concentration at steady state in UUO surgery-induced renal fibrosis C57BL/6J mouse model at 3 mg/kg/day, sc administered with mini osmotic pump measured after 3 days; format: ADME, organism-based; details: in vivo, 72 h, time 3 day
CYP2C19 = CYP2C19 (Homo sapiens, UniProt P33261); assay: Time dependent inhibition of CYP2C19 in human liver microsomes at 10 uM by LC-MS/MS analysis relative to control; format: ADME, Microsome; details: read-out: TDI
Chain of CYP2C19 (P33261 whole entry): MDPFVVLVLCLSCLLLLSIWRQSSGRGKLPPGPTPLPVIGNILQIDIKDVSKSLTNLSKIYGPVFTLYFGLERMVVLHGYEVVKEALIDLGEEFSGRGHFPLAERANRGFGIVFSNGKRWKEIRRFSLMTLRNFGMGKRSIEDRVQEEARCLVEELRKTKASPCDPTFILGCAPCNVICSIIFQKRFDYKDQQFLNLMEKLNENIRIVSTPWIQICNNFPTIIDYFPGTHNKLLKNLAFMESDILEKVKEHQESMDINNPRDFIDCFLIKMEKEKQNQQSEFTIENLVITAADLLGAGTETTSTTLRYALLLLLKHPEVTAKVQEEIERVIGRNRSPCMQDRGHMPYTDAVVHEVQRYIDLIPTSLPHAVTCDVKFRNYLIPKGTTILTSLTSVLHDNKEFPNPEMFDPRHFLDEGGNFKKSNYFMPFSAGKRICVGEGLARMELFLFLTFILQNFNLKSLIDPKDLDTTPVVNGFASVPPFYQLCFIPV

Stromelysin-1 = Stromelysin-1 (Homo sapiens, UniProt P08254); assay: Inhibition of recombinant human MMP3 assessed as enzyme activity by measuring fluorescence using fluorogenic peptide substrate
Chain of Stromelysin-1 (P08254 whole entry): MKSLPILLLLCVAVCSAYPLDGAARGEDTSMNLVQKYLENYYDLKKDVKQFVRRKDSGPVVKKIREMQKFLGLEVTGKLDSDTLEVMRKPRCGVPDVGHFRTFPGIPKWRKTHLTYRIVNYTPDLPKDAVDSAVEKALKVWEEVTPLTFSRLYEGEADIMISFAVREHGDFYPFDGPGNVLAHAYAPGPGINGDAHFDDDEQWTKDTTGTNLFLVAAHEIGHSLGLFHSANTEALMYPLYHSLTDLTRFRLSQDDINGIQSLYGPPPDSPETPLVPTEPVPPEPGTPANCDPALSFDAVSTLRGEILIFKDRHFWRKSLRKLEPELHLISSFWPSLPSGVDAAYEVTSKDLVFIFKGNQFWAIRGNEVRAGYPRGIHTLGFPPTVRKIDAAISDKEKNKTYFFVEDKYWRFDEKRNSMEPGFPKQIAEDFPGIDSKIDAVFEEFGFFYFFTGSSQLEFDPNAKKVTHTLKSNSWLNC

HepG2 = assay: Cytotoxicity against human HepG2 cells at 10 uM; format: toxicity, cell-based; details: hepg2, 10 µM
Mus musculus = assay: Antifibrotic effect in UUO surgery-induced renal fibrosis C57BL/6J mouse model assessed as reduction in renal collagen at 0.3 to 3 mg/kg/day, sc administered with mini osmotic pump measured after 7 days; format: functional, organism-based; details: dose 0.3-3 mg/kg/day, time 7.0 day
[13] = Plasma unbound drug concentration at steady state in UUO surgery-induced renal fibrosis C57BL/6J mouse model at 0.3 mg/kg/day, sc administered with mini osmotic pump measured after 3 days; format: ADME, organism-based; details: in vivo, 72 h, time 3 day
[14] = Plasma unbound drug concentration at steady state in UUO surgery-induced renal fibrosis C57BL/6J mouse model at 1 mg/kg/day, sc administered with mini osmotic pump measured after 3 days; format: ADME, organism-based; details: in vivo, 72 h, time 3 day
[15] = Clearance in Sprague-Dawley rat at 0.5 mg/kg, iv; format: ADME, organism-based; details: in vivo

- Vd [1]: 0.145 L/kg
- inhibition at 10 µM (CYP2B6): -4.8%
- inhibition at 10 µM (CYP2C9 [2]): 0.5%
- inhibition at 10 µM (CYP3A [3]): 2.5%
- inhibition at 10 µM (CYP1A2): -5%
- Cp(f) [4]: 1.32 nM
- remaining at 24 h [5]: 101%
- inhibition at 10 µM (CYP3A [6]): -5.2%
- pIC50 [7]: 8.39
- inhibition at 10 µM (CYP2C9 [8]): -11.5%
- inhibition at 10 µM (CYP2C8 [9]): 9.1%
- inhibition at 10 µM (CYP2C8 [10]): 14.4%
- fraction unbound [11]: 0.135
- Cp(f) [12]: 31 nM
- inhibition at 10 µM (CYP2C19): 4.8%
- pIC50 (Stromelysin-1): < 5.00
- Cp(f) [13]: 6.56 nM
- Cp(f) [14]: 15.6 nM
- clearance [15]: 3.52 mL/min/kg
Compound: CC(C)(C)[C@H](NC(=O)[C@H](Cc1ccncc1)NC(=O)CNC(=O)CC[C@H](NS(=O)(=O)c1ccc(Cl)c(C(F)(F)F)c1)C(=O)O)C(=O)Nc1ccc(C(=O)N2CCC(C(=O)N[C@H](CCCCN)C(=O)N3CC[C@H](N)C3)CC2)cc1
- Activity (HepG2): Non-Toxic
- Activity (Mus musculus): Active
